Publication PMC6385123, “Design, Synthesis, Anticancer Evaluation and Molecular Modeling of Novel Estrogen Derivatives” (Molecules, 2019)
Like-named read-outs stand apart in the source and are kept apart here.

Experiments:
p53 ubiquitination = test: In vivo ubiquitination of p53 (transfected cells); format: cell-based; settings: cells transfected with p53, MDM2, HIS-ubiquitin; exposed 6 h; read-out: IC50 (Mean ± SEM) In Vivo p53 Ubiquitination
Description: In vivo ubiquitination of p53 was assayed according to [38] Cells were grown for 24 h (50% confluency) before transfection of 1 µg p53, 4 µg MDM2 and 1 µg HIS-ubiquitin with Gene Juice reagent. Grown for another 20 h, cells were exposed to prepared derivatives or controls for 6 h and MG132 for 4 h, then washed and collected in PBS, where 5% of the solution was kept as an input. The remaining pelleted cells (95% after centrifugation) were lysed in 700 µL of ubiquitin buffer A (6 M guanidinium HCl, 300 mM NaCl, 50 mM phosphate pH 8.0, 100 µg/mL N-ethylmaleimide), and sonicated for 5 min at 20% amplitude. Lysates were incubated overnight with Invitrogen Dynabeads His-Tag matrix and washed once with ubiquitin buffers A, B, C and phosphate buffered saline (ubiquitin buffer B: Mix ubiquitin buffer A and ubiquitin buffer C 1:1; ubiquitin buffer C: 300 mM NaCl, 50 mM phosphate pH 8.0, 100 µg/mL N-ethylmaleimide). The washed lysates were resolved by 8% sodium dodecyl sulfate–polyacrylamide gel electrophoresis, followed by immunoblotting with a p53 (DO-1) antibody.

EGFR = EGFR (Homo sapiens, UniProt P00533); test: EGFR kinase inhibition assay; format: biochemical; settings: 8 μM ATP, poly(Glu,Tyr)4:1 substrate; read-out: IC50 (Mean ± SEM) EGFR
Description: (§1) The EGFR and VEGFR-2 kinase activities were assayed as previously described. The assay was performed in 96-well plates pre-coated with 20 μg mL^−1 poly (Glu, Tyr)4:1 (Sigma-Aldrich Chemie GmbH, Taufkirchen, Germany) as a substrate. In each well, 85 μL of an 8 μM ATP solution and 10 μL of the compound were added at varying concentrations. Experiments were repeated three times. Reactions started with 5 μL of different kinases and incubation for 1 h at 37 °C. Plates were 3X-washed with PBS/0.1% Tween 20. Accordingly, 100 μL of anti-phosphotyrosine (PY99; 1:500 dilutions) antibody was added, and plates were incubated for another hour at room temperature. Plates were then 3X-washed, and addition of goat anti-mouse IgG horseradish peroxidase (100 μL; 1:2000 dilution) diluted in T-PBS containing 5 mg mL^−1 BSA followed. Plates were further incubated at room temperature for another hour, and then 3X-washed. Finally, 100 μL (developing solution, 0.03% H2O2, 2 mg mL^−1 o-phenylenediamine/citrate buffer, 0.1 M, pH 5.5) was added and incubation continued until color development. The reaction was stopped by 100 μL of 2M H2SO4, and the absorption was measured at 492 nm using a multiwell spectrophotometer (VERSAmax™). The inhibition rate (%) was calculated using the equation:Inhibition rate (%) = [1 − (A492/A492Control)] × 100%(1)

MCF-10A cells = test: In vitro cytotoxicity against normal non-tumorigenic cells, MTT assay; format: cell-based; settings: normal non-tumorigenic MCF-10A cells, read-out: IC50 (Mean ± SEM) MCF-10A
Description: (§2) MCF-7 (human breast cancer) cells, obtained from Sigma-Aldrich Chemie GmbH, Taufkirchen, Germany, were propagated in RPMI-1640 supplemented with 10% heat inactivated FBS, 2 mM L-glutamine, and 1% standard antibiotic solution. Cells were incubated in a 5% CO2 humidified incubator at 37 °C and passaged bi-weekly. The in vitro anti-proliferative activity of the newly synthesized derivatives was assayed using standard MTT technique. Results were expressed as IC50. Experiments were repeated at least in triplicate, to obtain good reproducibility between replicate wells with standard errors below 10%. Furthermore, the cytotoxic effects of the prepared derivatives were evaluated against normal nonmalignant cells, non-tumorigenic MCF-10A, in order to find out if the synthesized derivatives have toxicity against normal cells. Additionally, results were compared with reference compounds (cisplatin and milaplatin) as positive controls.

MCF-7 cells = test: In vitro cytotoxic activity, MTT assay, MCF-7; format: cell-based, human; settings: MTT assay, MCF-7 cell line, read-out: IC50 (Mean ± SEM) MCF-7
Description: as §2

VEGFR-2 = VEGFR-2 (Homo sapiens, UniProt P35968); test: VEGFR-2 kinase inhibition assay; format: biochemical; settings: 8 μM ATP, poly(Glu,Tyr)4:1 substrate; read-out: IC50 (Mean ± SEM) VEGFR-2
Description: as §1

[1] = biological target: T1, p53 ubiquitination (GST-tagged HDM2) (Homo sapiens, UniProt Q00987); test: In vitro p53 ubiquitination assay; format: biochemical; settings: GST-tagged HDM2, p53, ubiquitin, E1 and E2 (UbcH5B); read-out: IC50 (Mean ± SEM) In Vitro p53 Ubiquitination
T1 construct: GS4b-MDM2 RING beads were prepared as above and were used in place of the full-length MDM2; made in house; host or cells: Escherichia coli BL21
Description: Different prepared derivatives were evaluated for their inhibitory potential against p53 ubiquitination. The method is based on incubating different compounds with GST-tagged HDM2, immobilized on glutathione-Sepharose, p53, ubiquitin, E1 and E2 (UbcH5B) ligases. The buffer contained ATP as detailed by Gomha and Abdelaziz. The reaction products were then resolved by SDSPAGE and p53 ubiquitination and were quantified by Western blotting using an anti-p53 antibody.
Briefly, rGSH-S-transferase-tagged MDM2 (GST-MDM2) was expressed in Escherichia coli BL21 cells using 1 mM isopropyl-thio-b-D-galactoside for 3 h. The enzyme was then purified on glutathione-sepharose beads (Amersham). Beads were washed with Tris (pH 7.5). The reaction contained fluorescent ubiquitin (5 µg; Invitrogen), 50 ng mammalian E1 (Enzo), 200 ng human rUbcH5B E2 (Enzo), 200 ng His-p53 (Enzo) and buffer [50 mM Tris pH 8,2 mM dithiothreitol, 5 mM MgCl2, 2 mM adenosine triphosphate (ATP)]. The MPD-compound or control mixture was dose-titrated onto GS4b-MDM2 beads. Incubation at 37 °C was followed by shaking (1200 rpm, 1 h). The reaction was terminated with 3× sodium dodecyl sulfate sample buffer. Finally, unbound fluorescent ubiquitin was drained and the total fluorescent ubiquitin signal was measured using a plate reader (Safire).
The procedure was performed similar to the aforementioned protocol except that 5 µg unlabeled ubiquitin (Enzo) was used. Following incubation, resolving of reaction products was performed using sodium dodecyl sulfate PGE. Analysis was done by western blotting using anti-p53 DO-1. For the MDM2 RING auto-ubiquitination assay, GS4b-MDM2 RING beads were prepared as above and were used in place of the full-length MDM2.

T1 sequence (Q00987 whole entry): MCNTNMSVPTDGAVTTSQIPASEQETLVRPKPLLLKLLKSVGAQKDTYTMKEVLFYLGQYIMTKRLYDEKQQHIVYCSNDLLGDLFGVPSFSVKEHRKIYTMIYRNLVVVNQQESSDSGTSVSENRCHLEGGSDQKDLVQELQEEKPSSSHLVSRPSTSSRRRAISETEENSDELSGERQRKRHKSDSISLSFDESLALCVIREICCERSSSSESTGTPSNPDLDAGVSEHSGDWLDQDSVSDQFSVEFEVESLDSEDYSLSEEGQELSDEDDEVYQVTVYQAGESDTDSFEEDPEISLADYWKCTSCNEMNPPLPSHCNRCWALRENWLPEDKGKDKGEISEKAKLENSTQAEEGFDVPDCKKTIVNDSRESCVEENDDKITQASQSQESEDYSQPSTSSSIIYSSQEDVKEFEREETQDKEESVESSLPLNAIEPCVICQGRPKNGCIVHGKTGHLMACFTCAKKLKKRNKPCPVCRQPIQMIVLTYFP
Chain of VEGFR-2 (P35968 20-1356): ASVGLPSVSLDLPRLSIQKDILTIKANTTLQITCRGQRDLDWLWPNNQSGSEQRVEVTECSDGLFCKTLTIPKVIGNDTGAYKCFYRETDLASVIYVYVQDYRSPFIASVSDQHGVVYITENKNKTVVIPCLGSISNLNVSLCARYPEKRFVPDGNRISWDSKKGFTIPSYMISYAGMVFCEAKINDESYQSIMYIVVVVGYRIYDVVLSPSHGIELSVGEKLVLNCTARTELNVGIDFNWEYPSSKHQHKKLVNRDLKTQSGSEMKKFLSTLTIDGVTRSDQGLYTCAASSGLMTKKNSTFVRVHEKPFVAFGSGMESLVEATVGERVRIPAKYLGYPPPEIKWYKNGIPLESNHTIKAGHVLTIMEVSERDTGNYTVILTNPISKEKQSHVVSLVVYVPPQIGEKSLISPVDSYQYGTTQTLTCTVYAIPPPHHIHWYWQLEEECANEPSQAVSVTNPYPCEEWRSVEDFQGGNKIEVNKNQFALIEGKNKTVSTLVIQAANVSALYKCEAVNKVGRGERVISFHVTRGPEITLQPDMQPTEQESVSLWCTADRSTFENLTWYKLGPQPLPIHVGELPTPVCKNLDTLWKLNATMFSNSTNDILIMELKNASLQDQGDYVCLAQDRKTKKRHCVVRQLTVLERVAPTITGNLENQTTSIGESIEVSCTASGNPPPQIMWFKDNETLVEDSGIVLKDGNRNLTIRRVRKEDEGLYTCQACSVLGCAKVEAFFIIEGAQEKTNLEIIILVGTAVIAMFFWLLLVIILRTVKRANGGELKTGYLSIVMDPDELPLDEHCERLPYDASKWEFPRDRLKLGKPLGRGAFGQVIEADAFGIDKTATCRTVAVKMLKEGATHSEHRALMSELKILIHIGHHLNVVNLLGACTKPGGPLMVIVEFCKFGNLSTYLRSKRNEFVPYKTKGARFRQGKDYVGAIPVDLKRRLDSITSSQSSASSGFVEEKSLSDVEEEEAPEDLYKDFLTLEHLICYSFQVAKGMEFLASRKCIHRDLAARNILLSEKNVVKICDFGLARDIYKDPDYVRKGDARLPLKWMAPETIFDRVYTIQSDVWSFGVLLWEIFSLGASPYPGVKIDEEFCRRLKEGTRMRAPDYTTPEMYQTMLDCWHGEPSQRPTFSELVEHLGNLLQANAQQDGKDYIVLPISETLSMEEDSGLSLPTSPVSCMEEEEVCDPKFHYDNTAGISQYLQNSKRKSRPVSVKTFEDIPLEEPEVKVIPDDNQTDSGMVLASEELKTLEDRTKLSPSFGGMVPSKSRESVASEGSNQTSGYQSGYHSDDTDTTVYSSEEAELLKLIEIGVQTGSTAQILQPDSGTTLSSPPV
Chain of EGFR (P00533 25-1210): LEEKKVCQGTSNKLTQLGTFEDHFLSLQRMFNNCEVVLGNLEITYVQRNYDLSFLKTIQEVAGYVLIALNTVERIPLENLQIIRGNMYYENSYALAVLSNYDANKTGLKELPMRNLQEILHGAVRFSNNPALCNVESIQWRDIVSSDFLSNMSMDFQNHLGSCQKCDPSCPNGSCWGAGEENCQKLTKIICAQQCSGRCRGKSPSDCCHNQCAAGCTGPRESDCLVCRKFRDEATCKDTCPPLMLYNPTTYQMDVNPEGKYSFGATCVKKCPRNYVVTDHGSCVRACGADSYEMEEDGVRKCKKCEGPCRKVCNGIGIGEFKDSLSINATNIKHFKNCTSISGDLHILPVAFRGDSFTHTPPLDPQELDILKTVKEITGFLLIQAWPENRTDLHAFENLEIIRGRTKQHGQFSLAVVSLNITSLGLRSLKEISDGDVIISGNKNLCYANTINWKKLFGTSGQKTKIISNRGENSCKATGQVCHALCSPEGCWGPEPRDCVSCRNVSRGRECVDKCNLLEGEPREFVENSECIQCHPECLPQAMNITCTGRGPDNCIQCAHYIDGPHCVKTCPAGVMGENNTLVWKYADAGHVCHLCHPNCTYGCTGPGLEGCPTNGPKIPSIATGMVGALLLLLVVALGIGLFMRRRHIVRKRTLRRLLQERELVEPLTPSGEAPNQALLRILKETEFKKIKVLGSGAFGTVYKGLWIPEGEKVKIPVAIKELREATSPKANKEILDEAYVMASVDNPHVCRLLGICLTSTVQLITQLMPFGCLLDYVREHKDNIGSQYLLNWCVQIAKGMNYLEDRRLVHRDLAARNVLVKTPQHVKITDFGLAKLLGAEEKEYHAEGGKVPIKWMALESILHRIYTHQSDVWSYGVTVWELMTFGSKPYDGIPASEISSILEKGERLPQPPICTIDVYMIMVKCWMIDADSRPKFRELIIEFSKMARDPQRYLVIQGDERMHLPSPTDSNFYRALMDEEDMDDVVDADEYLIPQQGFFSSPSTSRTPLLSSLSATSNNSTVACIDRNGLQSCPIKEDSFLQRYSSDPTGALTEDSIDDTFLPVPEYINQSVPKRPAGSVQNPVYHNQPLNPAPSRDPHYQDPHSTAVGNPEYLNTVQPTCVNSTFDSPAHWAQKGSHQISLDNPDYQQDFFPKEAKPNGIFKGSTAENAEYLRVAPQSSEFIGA

Compound	IC50 (p53 ubiquitination) [µM]	IC50 (EGFR) [µM]	melting point [°C]	IC50 (MCF-10A cells; Homo sapiens) [µM]	IC50 (MCF-7 cells; Homo sapiens, MCF7) [µM]	IC50 (VEGFR-2) [µM]	IC50 [1] [µM]	IC50 (MCF-10A cells) [µM]	IC50 (MCF-7 cells) [µM]
CC12CCC3c4ccc(O)cc4CCC3C1CC1C2=NN(C(N)=S)C1c1ccccc1Cl (centres unmarked) [Compound 8a, 1-Thiocarbamoyl-1′H-(2′H)-5′-(2-chlorophenyl)-estra-1(10),2,4-trien-[17,16-c]pyrazoline-3-ol]	0.74 ± 0.0087	0.166 ± 0.0028	294 to 296	435 ± 14.6	39.5 ± 0.75	0.051 ± 0.0017	55.4 ± 0.69	–	–
CC12CCC3c4ccc(O)cc4CCC3C1CC1=C2NC(=O)NC1c1ccccc1Cl (centres unmarked) [Compound 3a, 2′-Oxo-6′-(2-chlorophenyl)-estra-1(10),2,4,16(17)-tetraien-[17,16-d]pyrimidino-3-ol]	0.6 ± 0.0086	0.127 ± 0.0037	266 to 268	401 ± 11.6	35.7 ± 0.4	0.047 ± 0.003	47.6 ± 0.6	–	–
Milaplatin [reference compound]	–	–	–	–	–	–	–	18.3 ± 0.34	18.43 ± 0.13
CC12CCC3c4ccc(O)cc4CCC3C1CC1C2=NN(C(N)=O)C1c1ccccc1Cl (centres unmarked) [Compound 7a, 1-Carbamoyl-1′H-(2’H)-5′-(2-chlorophenyl)-estra-1(10),2,4-trien-[17,16-c]pyrazoline-3-ol]	0.86 ± 0.0068	0.188 ± 0.0016	298 to 300	466 ± 17.3	41.1 ± 0.84	0.055 ± 0.0013	66.7 ± 0.86	–	–
CC12CCC3c4ccc(O)cc4CCC3C1CC1=C2NC(=S)NC1c1ccccc1Cl (centres unmarked) [Compound 4a, 2′-Thione-6′-(2-chlorophenyl)-estra-1(10),2,4,16(17)-tetraien-[17,16-d]pyrimidine-3-ol]	0.45 ± 0.0085	0.095 ± 0.0028	290 to 292	302 ± 8.86	28.64 ± 0.28	0.037 ± 0.0026	36.6 ± 0.58	–	–
N.N.[Cl][Pt][Cl] [Cisplatin, reference compound]	–	–	–	–	–	–	–	9.55 ± 0.54	13.34 ± 0.11
CC12CCC3c4ccc(O)cc4CCC3C1CC1=C2NC(=NC#N)NC1c1ccccc1Cl (centres unmarked) [Compound 6a, 2′-Cyanoimino-6′-(2-chlorophenyl)-estra-1(10),2,4,16(17)-tetraien-[17,16-d]pyrimidino-3-ol]	0.32 ± 0.0063	0.09 ± 0.0006	223	244 ± 7.78	24.57 ± 0.16	0.031 ± 0.0041	28.47 ± 0.25	–	–
CC12CCC3c4ccc(O)cc4CCC3C1CC1=C2NC(=O)NC1c1ccc(Cl)cc1 (centres unmarked) [Compound 3b, Oxo-6′-(4-chlorophenyl)-estra-1(10),2,4,16(17)-tetraien-[17,16-d]pyrimidino-3-ols]	0.63 ± 0.0095	0.155 ± 0.0051	308 to 310	422 ± 13.8	38.6 ± 0.87	0.048 ± 0.0014	53.6 ± 0.78	–	–
CC12CCC3c4ccc(O)cc4CCC3C1CC1=C2NC(=NC#N)NC1c1ccc(Cl)cc1 (centres unmarked) [Compound 6b, 2′-Cyanoimino-6′-(4-chlorophenyl)-estra-1(10),2,4,16(17)-tetraien-[17,16-d]-pyrimidino-3-ol]	0.42 ± 0.0074	0.091 ± 0.0025	282 to 284	277 ± 8.23	26.46 ± 0.17	0.033 ± 0.001	29.5 ± 0.36	–	–
CC12CCC3c4ccc(O)cc4CCC3C1CC1C2=NN(C(N)=S)C1c1ccc(Cl)cc1 (centres unmarked) [Compound 8b, 1-Thiocarbamoyl-1′H-(2′H)-5′-(4-chlorophenyl)-estra-1(10),2,4-trien-[17,16-c]pyrazoline-3-ol]	0.82 ± 0.0078	0.177 ± 0.0041	252 to 256	446 ± 15.4	40.4 ± 0.95	0.053 ± 0.0023	64.6 ± 0.78	–	–
CC12CCC3c4ccc(O)cc4CCC3C1CC1=C2NC(=S)NC1c1ccc(Cl)cc1 (centres unmarked) [Compound 4b, 2’-Thione-6’-(4-chlorophenyl)-estra-1(10),2,4,16(17)-tetraien-[17,16-d]-pyrimidine-3-ol]	0.57 ± 0.0097	0.098 ± 0.0009	333 to 335	311 ± 9.59	31.8 ± 0.39	0.043 ± 0.0018	45.8 ± 0.49	–	–
Oc1cc(O)c2cc(O)c(-c3cc(O)c(O)c(O)c3)[o+]c2c1 [Delphinidin, reference compound]	–	6.27 ± 0.00076	–	–	–	5.09 ± 0.0012	–	–	–
CC12CCC3c4ccc(O)cc4CCC3C1CC1=C2NC(=N)NC1c1ccc(Cl)cc1 (centres unmarked) [Compound 5b, 2′-Imino-6′-(4-chlorophenyl)-estra-1(10),2,4,16(17)-tetraien-[17,16-d]pyrimidino-3-ol]	0.31 ± 0.0053	0.088 ± 0.0013	326 to 328	235 ± 7.76	22.5 ± 0.24	0.029 ± 0.0003	27.6 ± 0.34	–	–
CC12CCC3c4ccc(O)cc4CCC3C1CC1C2=NN(C(N)=O)C1c1ccc(Cl)cc1 (centres unmarked) [Compound 7b, 1-Carbamoyl-1’H-(2’H)-5’-(4-chlorophenyl)-estra-1(10),2,4-trien-[17,16-c]pyrazoline-3-ol]	0.89 ± 0.0099	0.227 ± 0.0004	248 to 250	512 ± 16.6	46.2 ± 0.93	0.057 ± 0.0005	77.6 ± 0.97	–	–
